Laboratory results published in patent US9822139B2, “Pharmaceutical composition containing cyclometalated N-heterocyclic carbene complexes for cancer treatment” (THE UNIVERSITY OF HONG KONG, priority 2009, dated 2017).

What was measured:
[1] = molecular target: T1, TopoI (Homo sapiens, UniProt P11387); assay: Band depletion assay for TopoI cleavable complexes; assay type: cell-based; details: 1 μM, KB cells
T1 construct: endogenous in cells; host or cells: KB cells
T1 sequence (P11387 1-765): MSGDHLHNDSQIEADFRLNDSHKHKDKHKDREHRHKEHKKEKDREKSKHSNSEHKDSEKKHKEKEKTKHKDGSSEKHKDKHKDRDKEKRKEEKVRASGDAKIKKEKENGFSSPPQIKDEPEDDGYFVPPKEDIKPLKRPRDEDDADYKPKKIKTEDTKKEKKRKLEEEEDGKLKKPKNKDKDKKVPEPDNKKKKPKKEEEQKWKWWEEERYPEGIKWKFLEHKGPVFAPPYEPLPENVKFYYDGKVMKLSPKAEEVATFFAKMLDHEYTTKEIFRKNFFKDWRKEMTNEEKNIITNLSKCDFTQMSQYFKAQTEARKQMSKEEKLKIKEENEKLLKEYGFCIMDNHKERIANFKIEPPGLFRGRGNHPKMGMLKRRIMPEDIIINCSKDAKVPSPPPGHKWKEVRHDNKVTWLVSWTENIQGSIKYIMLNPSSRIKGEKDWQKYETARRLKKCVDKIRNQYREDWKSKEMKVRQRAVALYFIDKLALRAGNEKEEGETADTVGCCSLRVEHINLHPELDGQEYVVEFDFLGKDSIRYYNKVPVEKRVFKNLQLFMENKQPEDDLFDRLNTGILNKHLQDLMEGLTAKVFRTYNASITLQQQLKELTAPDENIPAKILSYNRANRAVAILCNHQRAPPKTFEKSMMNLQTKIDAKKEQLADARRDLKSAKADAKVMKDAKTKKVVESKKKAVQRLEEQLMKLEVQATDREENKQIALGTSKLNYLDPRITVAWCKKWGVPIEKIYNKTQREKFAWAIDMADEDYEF
Description: In this assay, while TopoI-DNA cleavable complexes are trapped by alkaline lysis, free TopoI is detected as an immunoreactive band.

[2] = tested on: KB cells; assay: Alkaline comet assay for DNA strand breaks; assay type: cell-based

CC[C@@]1(O)C(=O)OCc2c1cc1n(c2=O)Cc2cc3ccccc3nc2-1 [CPT, camptothecin]
band intensity of the TopoI band [1]: reduced the band intensity of the TopoI band
strand breaks on chromosomal DNA (comet assay) ([2]; 1 μM, 3 h, KB cells): induced extensive strand breaks on chromosomal DNA
reversal of DNA cleavage events upon second incubation ([2]; second incubation at 55° C. for 10 min): partially reversed
